Assay results published in PubChem BioAssay (NCI).
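Results reflect a 48-hour exposure of cells in 96-well plates to compound at five concentrations. GI50 = concentration required for 50% inhibition of growth. TGI denotes the concentration required for complete inhibition of growth.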

How the values were obtained:
Assay in all cases: growth of human tumour cells (NCI), 48 h
A498 renal = system: A498 renal
HCT-15 colon = system: HCT-15 colon
LOX IMVI melanoma = system: LOX IMVI melanoma
UACC-62 melanoma = system: UACC-62 melanoma
NCI-H460 lung = system: NCI-H460 lung
OVCAR-5 ovarian = system: OVCAR-5 ovarian
SK-OV-3 ovarian = system: SK-OV-3 ovarian
HOP-62 NSCLC = system: HOP-62 NSCLC
IGROV1 ovarian = system: IGROV1 ovarian
SNB-75 CNS = system: SNB-75 CNS

Row | Structure (SMILES) | TGI (A498 renal) [µM] | TGI (HCT-15 colon) [µM] | TGI (LOX IMVI melanoma) [µM] | TGI (UACC-62 melanoma) [µM] | TGI (NCI-H460 lung) [µM] | TGI (OVCAR-5 ovarian) [µM] | TGI (SK-OV-3 ovarian) [µM] | TGI (HOP-62 NSCLC) [µM] | TGI (IGROV1 ovarian) [µM] | TGI (SNB-75 CNS) [µM] | GI50 (A498 renal) [µM] | GI50 (HCT-15 colon) [µM] | GI50 (LOX IMVI melanoma) [µM] | GI50 (UACC-62 melanoma) [µM] | GI50 (NCI-H460 lung) [µM] | GI50 (OVCAR-5 ovarian) [µM] | GI50 (SK-OV-3 ovarian) [µM] | GI50 (HOP-62 NSCLC) [µM] | GI50 (IGROV1 ovarian) [µM] | GI50 (SNB-75 CNS) [µM]
1 | CCCC/C(C)=N/NC(N)=S | > 100 | > 100 | > 100 | > 100 | > 100 | > 100 | > 100 | > 100 | > 100 | > 100 |  |  |  |  |  |  |  |  |  | 
2 | CN1C=CN(Cc2ccc(-c3ccccn3)nc2)[CH-]1.CN1C=CN(Cc2ccc(-c3ccccn3)nc2)[CH-]1.[Au+3] | > 68.8 | > 54.6 | 13.4 | 6.67 | > 100 | 27.3 | > 56.7 | 25.8 | 10.3 | > 51.8 | 8.53 | 1.6 | 2.89 | 1.4 | 3.37 | 5.84 | 9.32 | 8.31 | 1.42 | 13.9
3 | COC(=N)/C(=C1\OC(N)=C(c2ccc(Cl)cc2)C1=O)c1ccc(Cl)cc1 | > 100 | > 100 | > 100 | > 100 | > 100 | > 100 | > 100 | > 100 | > 100 | > 100 |  |  |  |  |  |  |  |  |  | 
4 | CC(=O)OCC1OC(O[C@@H]2C[C@H]3C(C)(C)[C@H](OC(C)=O)CC[C@]3(C)[C@H]3CC[C@@H]4[C@]5(CC[C@@]4(C)[C@@]32C)O[C@@H]([C@H](O)C(C)(C)O)C[C@@H]5C)C(O)C(O)C1O (stereo not given in full) | 25.9 | 5.94 | 15.6 | 19.7 | 20.8 | 17.5 | 20.7 | 27.3 | 21.6 | 18.4 | 11.7 | 2.19 | 3.61 | 6.36 | 6.54 | 5.07 | 7.95 | 14.2 | 9.57 | 5.13
5 | COc1ccc2c3c([nH]c2c1)[C@H]1C[C@H]2[C@H](C[C@@H](O)[C@H](OC)[C@H]2C(=O)O)CN1CC3 | > 100 | > 100 | > 100 | > 100 | > 100 | > 100 | > 100 | > 100 | > 100 | > 100 |  |  |  |  |  |  |  |  |  | 
6 | CC12CC(=O)NN=C1c1ccccc1C2 (stereo not given) | > 100 | > 100 | > 100 | > 100 | > 100 | > 100 | > 100 | > 100 | > 100 | > 100 |  |  |  |  |  |  |  |  |  | 
7 | COc1cc(SC)ccc1C(=O)N1CCCC(C)C1 (stereo not given) | > 100 | > 100 | > 100 | > 100 | > 100 | > 100 | > 100 | > 100 | > 100 | > 100 | 34.4 | > 100 | > 100 | > 100 | > 100 | > 100 | > 100 | > 100 | > 100 | > 100
8 | Cc1cc(C#Cc2ccccc2)ccc1-n1c(/C=C/c2ccc(O)cc2)nc2ccccc2c1=O | 7.71 | 19.2 | 10.8 | 21.7 | 6.18 | 94.7 | > 100 | > 100 | > 100 | 38.4 | 1.56 | 2.5 | 2.78 | 3.48 | 2.22 | 4.59 | 9.91 | 13.1 | 20.6 | 3.66
